Results from PMC11555717 (Cancer Medicine, 2024).
Square brackets hold non-standard residues; d marks the D form. Peptide text beside a SMILES is read from it. * marks the point of attachment. Dolaproine = CO[C@@H]([C@@H]1CCCN1)[C@@H](C)C(=O)O; Dil = CC[C@H](C)[C@H](NC)[C@@H](CC(=O)O)OC; X1 = C[C@@H](N*)[C@@H](O)c1ccccc1; NMeV = CN[C@H](C(=O)O)C(C)C

What was measured:
[1] = EV-203 pharmacokinetics of ADC, TAb and free MMAE in serum or plasma; type: in vivo, human; conditions: for Time of peak free MMAE concentration postinfusion: after end of enfortumab vedotin infusion
Protocol: In the PK cohort (i.e., PK analysis set), intensive PK sampling was performed wherein blood samples for analysis of ADC, total antibody (TAb), and free (unconjugated) MMAE were collected at prespecified time points. […] Blood samples for antitherapeutic antibodies (ATAs) were collected predose on Day 1 of cycles 1 to 4, 6, 8, 10, and within 30–37 days after the last study dose. Validated assays were used to measure concentrations of ADC, TAb, and free MMAE in serum or plasma and to assess ATA levels.
All patients who received any amount of study drug were included in the primary analyses of efficacy endpoints and safety analyses. The PK analyses included data from patients in the PK cohort who received at least 3 of 4 doses of the study drug through cycle 2 Day 1 and had at least five blood samples collected and assayed for measurements of ADC, TAb, or free MMAE concentrations to determine at least one PK parameter.

[2] = test system: patients with HER2-positive (IHC2+ or 3+) unresectable locally advanced or mUC; parameters: method as in earlier work; conditions: pooled two phase 2 studies, combined N = 107; 95% CI 40.6%–60.3%; cited from earlier work
[3] = cycle 1 Day 1, Non-PK cohort, mean (SD)
[4] = cycle 1 Day 1, PK cohort, mean (SD)
[5] = cycle 1 Day 8, Non-PK cohort, mean (SD)
[6] = cycle 1 Day 8, PK cohort, mean (SD)
[7] = cycle 1 Day 15, Non-PK cohort, mean (SD)
[8] = cycle 1 Day 15, PK cohort, mean (SD)
[9] = plasma, Cycle 1 Day 15, third to first dose, mean (SD)

In the case of `CC[C@H](C)[C@@H]([C@@H](CC(=O)N1CCC[C@H]1[C@H](OC)[C@@H](C)C(=O)N[C@H](C)[C@@H](O)c1ccccc1)OC)N(C)C(=O)[C@@H](NC(=O)[C@@H](NC)C(C)C)C(C)C` [Free MMAE, monomethyl auristatin E] (H-[NMeV]V[Dil][Dolaproine]-X1), the “Plasma concentration at end of infusion” value [1, 3] is reported as 376 (241) [23] pg/mL, the “Plasma concentration at end of infusion” value [1, 4] is reported as 357 (154) [13] pg/mL and the “Plasma concentration at end of infusion” value [1, 5] is reported as 2720 (1490) [17] pg/mL. For the same molecule, the “Plasma concentration at end of infusion” value [1, 6] was 1680 (1290) [12] pg/mL, the “Plasma concentration at end of infusion” value [1, 7] was 3350 (2600) [11] pg/mL and the “Plasma concentration at end of infusion” value [1, 8] was 2110 (1680) [10] pg/mL. The “Median t max (range)” value ([1]; plasma, Cycle 1 Day 1) was 2.00 (1.87–2.93) days, the “AUC0–7d” value ([1]; plasma, Cycle 1 Day 1, after enfortumab vedotin 1.25 mg/kg IV, mean (SD)) was 16.9 (9.2) day ng/mL and the C max ([1]; plasma, Cycle 1 Day 1, mean (SD)) was 3.3 (1.74) ng/mL. For the same molecule, the “Median t max (range)” value ([1]; plasma, Cycle 1 Day 15) was 1.93 (0.86–2.92) days, the “AUC0–7d” value ([1]; plasma, Cycle 1 Day 15, after enfortumab vedotin 1.25 mg/kg IV, mean (SD)) was 23.3 (16.4) day ng/mL and the C max ([1]; plasma, Cycle 1 Day 15, mean (SD)) was 4.5 (3.58) ng/mL. The “R ac (AUC0–7d), accumulation ratio” value [1, 9] was 1.32 (0.486), the “R ac (Cmax), accumulation ratio” value [1, 9] was 1.28 (0.499) and the “Time of peak free MMAE concentration postinfusion” value ([1]; plasma, listed as MMAE) was “approximately 2 days”. For the same molecule, the “Time of peak free MMAE concentration postinfusion” value ([1]; plasma, listed as free MMAE) was 2 to 3 days and the “Mean accumulation ratios (third to first dose) for maximum concentration and AUC0–7d” value ([1]; range over ADC, TAb and free MMAE, repeat dosing) was 1.03 to 1.32.

With “TAb: total antibody analyte measured in serum after enfortumab vedotin dosing” the “Serum concentration at end of infusion” value [1, 3] was 29,100 (5050) [23] ng/mL, the “Serum concentration at end of infusion” value [1, 4] was 30,800 (5730) [13] ng/mL and the “Serum concentration at end of infusion” value [1, 5] was 29,900 (5450) [17] ng/mL. For the same molecule, the “Serum concentration at end of infusion” value [1, 6] was 34,300 (6640) [12] ng/mL, the “Serum concentration at end of infusion” value [1, 7] was 27,600 (6210) [11] ng/mL and the “Serum concentration at end of infusion” value [1, 8] was 33,600 (5450) [10] ng/mL. The “AUC0–7d” value ([1]; serum, Cycle 1 Day 1, PK cohort, 1.25 mg/kg IV, mean (SD)) was 77.4 (17.3) day μg/mL, the C max ([1]; serum, Cycle 1 Day 1, PK cohort, mean (SD)) was 31.7 (5.73) μg/mL and the “AUC0–7d” value ([1]; serum, Cycle 1 Day 15, PK cohort, 1.25 mg/kg IV, mean (SD)) was 94.7 (15.7) day μg/mL. The C max ([1]; serum, Cycle 1 Day 15, PK cohort, mean (SD)) was 34.4 (4.64) μg/mL and the “Time of peak serum concentration” value ([1]; serum, PK cohort cycle 1) was “at the end of the enfortumab vedotin infusion”.

B1: disitamab vedotin (conjugate, chains of the INN, looked up)
VH: EVQLVQSGAEVKKPGATVKISCKVSGYTFTDYYIHWVQQAPGKGLEWMGRVNPDHGDSYYNQKFKDKATITADKSTDTAYMELSSLRSEDTAVYFCARNYLFDHWGQGTLVTVSS
VL: DIQMTQSPSSVSASVGDRVTITCKASQDVGTAVAWYQQKPGKAPKLLIYWASIRHTGVPSRFSGSGSGTDFTLTISSLQPEDFATYYCHQFATYTFGGGTKVEIK
modifications: vedotin (MMAE) payload
For B1, the ORR [2] is listed as 50.5%.
